Assays:
Experiment in all cases: relative viability (nuclei count vs DMSO), 5 days (fraction); higher = more cells survive
Trametinib + Pemetrexed = compound: CC(=O)Nc1cccc(-n2c(=O)n(C3CC3)c(=O)c3c(Nc4ccc(I)cc4F)n(C)c(=O)c(C)c32)c1 [Trametinib] + Nc1nc2[nH]cc(CCc3ccc(C(=O)N[C@@H](CCC(=O)O)C(=O)O)cc3)c2c(=O)[nH]1 [Pemetrexed] (partner 0.2 µM)
Outline: (§1)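 The day after seeding in 1536-well plates, lung cancer cell lines were treated by pin tool with a single drug, or with a fixed anchor-drug dose together with five library-drug doses (not always all listed) in √10 steps. After 5 days, a combined fix-and-stain solution (final 0.05% Triton X-100, 1% formaldehyde, 1 ug/ml Hoechst) was added. Nuclei counted on 4× images gave relative viability as treated counts over vehicle counts, reported as the median of duplicate plates.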

Trametinib + Palbociclib = compound: CC(=O)Nc1cccc(-n2c(=O)n(C3CC3)c(=O)c3c(Nc4ccc(I)cc4F)n(C)c(=O)c(C)c32)c1 [Trametinib] + CC(=O)c1c(C)c2cnc(Nc3ccc(N4CCNCC4)cn3)nc2n(C2CCCC2)c1=O [Palbociclib] (partner 0.5 µM)
Outline: as §1

[1] = compound: CN1C=C(C2=CC=CC=C21)/C=C\3/C4=C(C=CC=N4)NC3=O + CS(=O)(=O)CCNCc1ccc(-c2ccc3ncnc(Nc4ccc(OCc5cccc(F)c5)c(Cl)c4)c3c2)o1 [Lapatinib] (partner 2 µM)
Outline: as §1

[2] = compound: CN1C=C(C2=CC=CC=C21)/C=C\3/C4=C(C=CC=N4)NC3=O + CC(C)C[C@H](NC(=O)[C@H](Cc1ccccc1)NC(=O)c1cnccn1)B(O)O [Bortezomib] (partner 0.002 µM)
Outline: as §1

Cell Line | relative viability (Trametinib + Pemetrexed; first compound 0.0025 µM) | relative viability (Trametinib + Pemetrexed; first compound 0.007906 µM) | relative viability (Trametinib + Pemetrexed; first compound 0.025 µM) | relative viability (Trametinib + Pemetrexed; first compound 0.07906 µM) | relative viability (Trametinib + Pemetrexed; first compound 0.25 µM) | relative viability (Trametinib + Palbociclib; first compound 0.0025 µM) | relative viability (Trametinib + Palbociclib; first compound 0.007906 µM) | relative viability (Trametinib + Palbociclib; first compound 0.025 µM) | relative viability (Trametinib + Palbociclib; first compound 0.07906 µM) | relative viability (Trametinib + Palbociclib; first compound 0.25 µM) | relative viability ([1]; first compound 0.02 µM) | relative viability ([1]; first compound 0.06325 µM) | relative viability ([1]; first compound 0.2 µM) | relative viability ([1]; first compound 0.6325 µM) | relative viability ([1]; first compound 2 µM) | relative viability ([2]; first compound 0.02 µM) | relative viability ([2]; first compound 0.06325 µM) | relative viability ([2]; first compound 0.2 µM) | relative viability ([2]; first compound 0.6325 µM) | relative viability ([2]; first compound 2 µM)
NCI-H661 | 0.882 | 0.889 | 0.821 | 0.753 | 0.753 | 0.429 | 0.404 | 0.377 | 0.311 | 0.348 | 0.601 | 0.574 | 0.46 | 0.427 | 0.54 | 0.775 | 0.735 | 0.691 | 0.727 | 0.878
CAL-12T | 1.21 | 1.15 | 0.753 | 0.483 | 0.589 | 0.387 | 0.193 | 0.179 | 0.171 | 0.187 | 0.652 | 0.625 | 0.574 | 0.717 | 0.839 | 0.904 | 0.882 | 0.945 | 1.08 | 1.04
HARA | 0.224 | 0.226 | 0.254 | 0.212 | 0.219 | 0.236 | 0.202 | 0.205 | 0.192 | 0.198 | 0.703 | 0.653 | 0.665 | 0.857 | 0.768 | 1.06 | 1.09 | 0.87 | 1.18 | 1.14
NCI-H596 | 0.475 | 0.445 | 0.477 | 0.546 | 0.426 |  |  |  |  |  | 1.05 | 1.03 | 0.889 | 1.02 | 0.99 | 0.838 | 1.17 | 1.03 | 1.07 | 1.02
LU99A | 0.206 | 0.208 | 0.203 | 0.193 | 0.206 | 0.401 | 0.436 | 0.335 | 0.355 | 0.243 | 0.986 | 0.805 | 0.9 | 0.964 | 0.85 | 1.16 | 1.09 | 1.09 | 1.13 | 0.964
LC-2-ad | 0.271 | 0.259 | 0.294 | 0.274 | 0.282 | 0.5 | 0.452 | 0.461 | 0.381 | 0.404 | 0.834 | 0.935 | 0.89 | 1.05 | 1 | 1 | 0.942 | 0.964 | 0.971 | 0.965
NCI-H1650 | 0.388 | 0.324 | 0.314 | 0.329 | 0.216 | 0.34 | 0.38 | 0.34 | 0.357 | 0.158 | 0.854 | 0.793 | 0.574 | 0.768 | 0.842 | 0.189 | 0.19 | 0.2 | 0.19 | 0.222
NCI-H1915 | 0.492 | 0.521 | 0.313 | 0.262 | 0.216 | 0.477 | 0.382 | 0.196 | 0.19 | 0.143 | 0.921 | 0.98 | 0.898 | 1.09 | 1.05 | 0.913 | 1 | 0.962 | 1.11 | 1.15

Reference: the supplement of paper PMC10307832
